In ChEMBL document CHEMBL4706628, “Ligand-based optimization to identify novel 2-aminobenzo[d]thiazole derivatives as potent sEH inhibitors with anti-inflammatory effects” (Eur J Med Chem, 2021):
pIC50: −log10 of the molar value.

Experiments:
[1] = biological target: T1, Bifunctional epoxide hydrolase 2 (Homo sapiens) (UniProt P34913); experiment: Inhibition of recombinant human sEH at 100 nM using PHOME as substrate measured after 15 mins by fluorescence assay relative to control
T1 sequence (whole entry): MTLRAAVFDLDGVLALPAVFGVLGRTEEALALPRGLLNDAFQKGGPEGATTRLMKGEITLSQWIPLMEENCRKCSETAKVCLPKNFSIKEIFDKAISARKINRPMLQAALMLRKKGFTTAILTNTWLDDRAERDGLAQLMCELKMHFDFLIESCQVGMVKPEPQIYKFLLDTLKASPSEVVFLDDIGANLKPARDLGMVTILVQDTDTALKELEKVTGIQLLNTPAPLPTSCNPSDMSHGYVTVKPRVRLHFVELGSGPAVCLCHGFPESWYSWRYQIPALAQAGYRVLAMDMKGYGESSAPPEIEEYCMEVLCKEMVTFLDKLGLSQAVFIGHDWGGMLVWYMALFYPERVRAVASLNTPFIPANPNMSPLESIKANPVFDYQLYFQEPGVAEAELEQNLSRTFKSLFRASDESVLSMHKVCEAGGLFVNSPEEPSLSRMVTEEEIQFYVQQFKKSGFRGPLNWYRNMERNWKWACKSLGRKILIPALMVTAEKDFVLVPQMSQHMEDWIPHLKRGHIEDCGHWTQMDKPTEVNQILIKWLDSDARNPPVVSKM

[2] = biological target: T2, Bifunctional epoxide hydrolase 2 (Homo sapiens, UniProt P34913); experiment: Inhibition of recombinant human sEH using PHOME as substrate measured after 15 mins by fluorescence assay
T2 sequence (P34913 whole entry): T1 sequence (whole entry)

in vitro [3] = conditions: Sprague-Dawley, rat, liver microsomes
Description: Half life in Sprague-Dawley rat liver microsomes at 10 uM measured up to 60 mins in presence of NADPH regenerating system by HPLC analysis

in vitro [4] = conditions: Sprague-Dawley, rat, liver microsomes; remark: listed apart in the source
in vitro [5] = conditions: Sprague-Dawley, rat, liver microsomes; remark: listed apart in the source
in vitro [6] = conditions: Sprague-Dawley, rat, liver microsomes; remark: listed apart in the source
Description: Stability in Sprague-Dawley rat liver microsomes assessed as parent compound remaining at 10 uM measured after 60 mins in presence of NADPH regenerating system by HPLC analysis

in vitro [7] = conditions: Sprague-Dawley, rat, liver microsomes; remark: listed apart in the source
Description: Stability in Sprague-Dawley rat liver microsomes assessed as parent compound remaining at 10 uM measured after 60 mins in absence of NADPH regenerating system by HPLC analysis

Row | Structure (SMILES) | inhibition [1] [%] | other results
1 | CN1CCN(CCN(C(=O)Nc2ccc(Cl)cc2)c2ccc3nc(N)sc3c2)CC1 | 45.9 | 
2 | COc1ccc(CC(=O)Nc2nc3ccc(N(CCN4CCOCC4)C(=O)Nc4ccc(Cl)cc4)cc3s2)cc1F | 58.1 | 
3 | O=C(CCc1ccccc1)Nc1nc2ccc(N(CCN3CCOCC3)C(=O)Nc3ccc(Cl)cc3)cc2s1 | 77.7 | 
4 | Nc1nc2ccc(N(CCN3CCOCC3)C(=O)Nc3ccc(F)cc3)cc2s1 | 74.3 | 
5 | Nc1nc2ccc(N(CCN3CCOCC3)C(=O)Nc3ccccc3)cc2s1 | 40.4 | 
6 | CC1CCN(CCN(C(=O)Nc2ccc(Cl)cc2)c2ccc3nc(N)sc3c2)CC1 | 77.5 | pIC50 [2]: 7.69
7 | O=C(Cc1ccccc1F)Nc1nc2ccc(N(CCN3CCOCC3)C(=O)Nc3ccc(Cl)cc3)cc2s1 | 82.5 | pIC50 [2]: 8.39
8 | Nc1ccc2nc(NC(=O)NCc3ccc(Cl)cc3)sc2c1 | 14.2 | 
9 | Nc1nc2ccc(N(CCN3CCOCC3)C(=O)Nc3cccc4ccccc34)cc2s1 | 39 | pIC50 [2]: 6.82
10 | Nc1nc2ccc(N(CCCN3CCOCC3)C(=O)Nc3ccc(Cl)cc3)cc2s1 | 9.44 | 
11 | Nc1nc2ccc(N(CCN3CCOCC3)C(=O)Nc3ccc(Cl)cc3Cl)cc2s1 | 58.4 | 
12 | O=C(Cc1ccccc1)Nc1nc2ccc(N(CCN3CCOCC3)C(=O)Nc3ccc(F)c(Br)c3)cc2s1 | 74.2 | 
13 | Cc1ccc(NC(=O)N(CCN2CCOCC2)c2ccc3nc(N)sc3c2)cc1 | 73.1 | pIC50 [2]: 8.08
14 | Cc1cccc(NC(=O)N(CCN2CCOCC2)c2ccc3nc(N)sc3c2)c1 | 61.7 | pIC50 [2]: 6.99
15 | Nc1nc2ccc(N(CCN3CCCCC3)C(=O)Nc3ccc(Cl)cc3)cc2s1 | 84.6 | pIC50 [2]: 8.19
16 | CC(=O)Nc1nc2ccc(N(CCN3CCOCC3)C(=O)Nc3ccc(Cl)cc3)cc2s1 | 68.1 | 
17 | CC(=O)Nc1ccc(NC(=O)N(CCN2CCOCC2)c2ccc3nc(N)sc3c2)cc1 | 59.4 | 
18 | Nc1nc2ccc(N(CCN3CCOCC3)C(=O)NCc3ccc(Cl)cc3)cc2s1 | 14.5 | 
19 | COc1ccc(CC(=O)Nc2nc3ccc(N(CCN4CCOCC4)C(=O)Nc4ccc(Cl)cc4)cc3s2)cc1 | 65.8 | 
20 | Nc1nc2ccc(N(CCN3CCOCC3)C(=O)Nc3cccc(Cl)c3)cc2s1 | 36.5 | 
21 | O=C(Cc1ccc(Cl)cc1)Nc1nc2ccc(N(CCN3CCOCC3)C(=O)Nc3ccc(Cl)cc3)cc2s1 | 71.9 | 

Row | Structure (SMILES) | inhibition [1] [%] | other results
22 | CCc1ccc(NC(=O)N(CCN2CCOCC2)c2ccc3nc(N)sc3c2)cc1 | 84.7 | pIC50 [2]: 8.72
23 | O=C(Nc1nc2ccc(N(CCN3CCOCC3)C(=O)Nc3ccc(Cl)cc3)cc2s1)c1ccccc1 | 48.8 | 
24 | Nc1nc2ccc(N(CCN3CCOCC3)C(=O)Nc3cccc(C(F)(F)F)c3)cc2s1 | 6.18 | 
25 | CC(C)c1ccc(NC(=O)N(CCN2CCOCC2)c2ccc3nc(N)sc3c2)cc1 | 75.2 | pIC50 [2]: 7.95
26 | Nc1nc2ccc(NC(=O)NCc3ccc(Cl)cc3)cc2s1 | 47 | 
27 | Nc1nc2ccc(N(CCN3CCOCC3)C(=O)Nc3ccc(C(F)(F)F)cc3)cc2s1 | 62 | 
28 | Nc1nc2ccc(N(CCN3CCOCC3)C(=O)Nc3ccccn3)cc2s1 | 16.2 | 
29 | Nc1nc2ccc(NC(=O)Nc3cccc4ccccc34)cc2s1 | 34.1 | 
30 | O=C(Nc1nc2ccc(N(CCN3CCOCC3)C(=O)Nc3ccc(Cl)cc3)cc2s1)c1ccc(F)cc1 | 64 | 
31 | Nc1nc2ccc(NC(=O)Nc3ccc(Cl)cc3)cc2s1 | 76.1 | pIC50 [2]: 8.00
32 | Nc1nc2ccc(N(CCN3CCCC3)C(=O)Nc3ccc(Cl)cc3)cc2s1 | 48.3 | 
33 | O=C(Cc1ccc(Br)cc1)Nc1nc2ccc(N(CCN3CCOCC3)C(=O)Nc3ccc(Cl)cc3)cc2s1 | 70.6 | 
34 | Nc1nc2ccc(NC(=O)NC34CC5CC(CC(C5)C3)C4)cc2s1 | 77.3 | pIC50 [2]: 6.09
35 | Nc1nc2ccc(NC(=O)Nc3ccccc3)cc2s1 | 40.1 | 
36 | Cc1ccccc1NC(=O)N(CCN1CCOCC1)c1ccc2nc(N)sc2c1 | 26.3 | 
37 | CN(C)CCN(C(=O)Nc1ccc(Cl)cc1)c1ccc2nc(N)sc2c1 | 39.1 | 
38 | Nc1nc2ccc(N(CCN3CCOCC3)C(=O)Nc3ccc([N+](=O)[O-])cc3)cc2s1 | 19.2 | 
39 | O=C(Nc1ccc(Cl)cc1)Nc1nc2ccc(NCCN3CCOCC3)cc2s1 | 16.2 | 
40 | CCN(CC)CCN(C(=O)Nc1ccc(Cl)cc1)c1ccc2nc(N)sc2c1 | 86.3 | pIC50 [2]: 7.61
41 | O=C(Nc1ccc(Cl)cc1)Nc1nc2ccc([N+](=O)[O-])cc2s1 | 7.2 | 
42 | Nc1nc2ccc(NC(=O)NC3CCCCC3)cc2s1 | 59.9 | pIC50 [2]: 8.39

Row | Structure (SMILES) | inhibition [1] [%] | other results
43 | O=C(Nc1nc2ccc(N(CCN3CCOCC3)C(=O)Nc3ccc(Cl)cc3)cc2s1)C1CC1 | 32.5 | 
44 | Nc1nc2ccc(N(CCN3CCOCC3)C(=O)Nc3ccccc3Cl)cc2s1 | 59.7 | 
45 | CC(=O)c1ccc(NC(=O)N(CCN2CCOCC2)c2ccc3nc(N)sc3c2)cc1 | 28.2 | 
46 | Nc1nc2ccc(N(CCN3CCOCC3)C(=O)Nc3ccc(Br)cc3)cc2s1 | 83.8 | pIC50 [2]: 7.79
47 | CC(=O)Nc1ccc2nc(NC(=O)Nc3ccc(Cl)cc3)sc2c1 | 12.5 | 
48 | O=C(NCc1ccc(Cl)cc1)Nc1nc2ccc([N+](=O)[O-])cc2s1 | 10.9 | 
49 | O=C(Cc1ccccc1F)Nc1nc2ccc(N(CCN3CCOCC3)C(=O)Nc3ccc(F)c(Br)c3)cc2s1 | 73.8 | 
50 | CC(C)Oc1ccc(NC(=O)N(CCN2CCOCC2)c2ccc3nc(N)sc3c2)cc1 | 56.6 | pIC50 [2]: 6.91
51 | Nc1nc2ccc(NC(=O)Nc3ccccn3)cc2s1 | 20.5 | 
52 | CCc1ccc(NC(=O)N(CCN2CCOCC2)c2ccc3nc(NC(=O)Cc4ccccc4F)sc3c2)cc1 | 85.2 | pIC50 [2]: 8.27
53 | CN1CCN(C(=O)Nc2nc3ccc(N(CCN4CCOCC4)C(=O)Nc4ccc(Cl)cc4)cc3s2)CC1 | 64 | 
54 | O=C(Cc1ccc(Cl)cc1Cl)Nc1nc2ccc(N(CCN3CCOCC3)C(=O)Nc3ccc(Cl)cc3)cc2s1 | 71.8 | 
55 | O=C(O)Cc1ccccc1Nc1c(Cl)cccc1Cl [DICLOFENAC] |  | half-life at 1 h, 10 µM (in vitro [3]): 23.4 min; microsomal CLint at 1 h, 10 µM (in vitro [4]): 59.3 µL/min/mg; microsomal CLint at 1 h, 10 µM (in vitro [5]): 107 µL/min/mg; remaining at 1 h, 10 µM (in vitro [6]): 16.9%; remaining at 1 h, 10 µM (in vitro [7]): 96.3%
56 | NC(=O)Nc1ccc2nc(N)sc2c1 | 25.3 | 
57 | CCc1ccc(NC(=O)N(CCN2CCOCC2)c2ccc3nc(NC(=O)Cc4ccccc4)sc3c2)cc1 | 76.8 | 
58 | O=C(Cc1ccc(F)cc1)Nc1nc2ccc(N(CCN3CCOCC3)C(=O)Nc3ccc(Cl)cc3)cc2s1 | 74.9 | 
59 | CC(=O)Nc1ccc2nc(NC(=O)NCc3ccc(Cl)cc3)sc2c1 | 14.5 | 
60 | Nc1ccc2nc(NC(=O)Nc3ccc(Cl)cc3)sc2c1 | 6.7 | 
61 | Nc1nc2ccc(N(CCN3CCOCC3)C(=O)Nc3ccc(OC(F)(F)F)cc3)cc2s1 | 61.3 | 
62 | Nc1nc2ccc(NC(=O)Nc3ccc(OC(F)(F)F)cc3)cc2s1 | 60.2 | 
63 | COc1ccc(NC(=O)Nc2ccc3nc(N)sc3c2)cc1 | 39.3 | 
